According to patent US12479850B2, “Compound having Axl and c-Met kinase inhibitory activity, preparation thereof and application thereof” (Shanghai Institute of Materia Medica, Chinese Academy of …, priority 2019, dated 2025):

What was measured:
[1] = target: T1, Axl kinase domain recombinant protein (Homo sapiens, UniProt P30530); test: ELISA kinase activity assay, Axl
T1 sequence (P30530 536-807 limits assumed): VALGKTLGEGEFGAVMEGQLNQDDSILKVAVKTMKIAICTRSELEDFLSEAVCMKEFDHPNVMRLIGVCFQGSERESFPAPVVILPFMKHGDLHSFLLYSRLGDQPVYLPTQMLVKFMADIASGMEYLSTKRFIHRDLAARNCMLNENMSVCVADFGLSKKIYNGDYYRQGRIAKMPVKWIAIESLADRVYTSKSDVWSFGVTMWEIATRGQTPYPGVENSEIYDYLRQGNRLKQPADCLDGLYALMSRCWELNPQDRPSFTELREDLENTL

[2] = target: c-Met kinase domain recombinant protein (Homo sapiens, UniProt P08581); test: ELISA kinase activity assay, c-Met
Chain of c-Met kinase domain recombinant protein (P08581 1078-1345 limits assumed): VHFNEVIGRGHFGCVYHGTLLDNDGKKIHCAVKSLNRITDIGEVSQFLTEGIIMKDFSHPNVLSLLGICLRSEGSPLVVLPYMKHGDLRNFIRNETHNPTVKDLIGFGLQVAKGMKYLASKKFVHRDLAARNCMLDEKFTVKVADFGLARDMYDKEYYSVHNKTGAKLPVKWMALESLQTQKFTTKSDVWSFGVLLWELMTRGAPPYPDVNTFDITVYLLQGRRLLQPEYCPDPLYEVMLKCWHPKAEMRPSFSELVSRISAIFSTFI

Row | Compound | IC50 [1] [nM] | IC50 [2] [nM]
1 | Cn1cc(-c2cc(Oc3ccc(NC(=O)c4cn(C5CCCC5)c(=O)n(-c5ccc(F)cc5)c4=O)cc3F)ccn2)cn1 [No. 11, 1-cyclopentyl-N-(3-fluoro-4-((2-(1-methyl-1H-pyrazol-4-yl)pyridin-4-yl)oxy)phenyl)-3-(4-fluorophenyl)-2,4-dioxo-1,2,3,4-tetrahydropyrimidin-5-carboxamide] | < 10 | < 10
2 | COc1cc(-c2cnc(N)c(-c3ccc(NC(=O)c4cn(C(C)C)c(=O)n(-c5ccc(F)cc5)c4=O)cc3F)c2)ccc1OC[C@H]1COCCO1 [No. 39, (R)—N-(4-(5-(4-((1,4-dioxan-2-yl)methoxy)-3-methoxyphenyl)-2-aminopyridin-3-yl)-3-fluorophenyl)-3-(4-fluorophenyl)-1-isopropyl-2,4-dioxo-1,2,3,4-tetrahydropyrimidin-5-carboxamide] | < 10 | 10 to 100
3 | CCn1cc(C(=O)Nc2ccc(Oc3ccnc(-c4cnn(C)c4)c3)c(F)c2)c(=O)n(-c2ccc(F)cc2)c1=O [No. 2, 1-ethyl-N-(3-fluoro-4-((2-(1-methyl-1H-pyrazol-4-yl)pyridin-4-yl)oxy)phenyl)-3-(4-fluorophenyl)-2,4-dioxo-1,2,3,4-tetrahydropyrimidin-5-formamide] | < 10 | < 10
4 | CC(C)n1nc(C(=O)Nc2ccc(Oc3ccnc(-c4cnn(C)c4)c3)cc2)c(=O)n(-c2ccc(F)cc2)c1=O [No. 23, 4-(4-fluorophenyl)-2-isopropyl-N-(4-((2-(1-methyl-1H-pyrazol-4-yl)pyridin-4-yl)oxy)phenyl)-3,5-dioxo-2,3,4,5-tetrahydro-1,2,4-triazin-6-carboxamide] | 10 to 100 | 10 to 100
5 | CC(C)n1cc(C(=O)Nc2ccc(Oc3ccnc4c3OCCN4)cc2)c(=O)n(-c2ccc(F)cc2)c1=O [No. 48, N-(4-((3,4-dihydro-2H-pyridino[3,2-b][1,4]oxazin-8-yl)oxy)phenyl)-3-(4-fluorophenyl)-1-isopropyl-2,4-dioxo-1,2,3,4-tetrahydropyrimidin-5-carboxamide] | < 10 | 10 to 100
6 | CC(C)n1cc(C(=O)Nc2ccc(Oc3ccnc4c3CCN4)c(F)c2)c(=O)n(-c2ccc(F)cc2)c1=O [No. 51, N-(4-((2,3-dihydro-1H-pyrrolo[2,3-b]pyridin-4-yl)oxy)-3-fluorophenyl)-3-(4-fluorophenyl)-1-isopropyl-2,4-dioxo-1,2,3,4-tetrahydropyrimidin-5-carboxamide] | < 10 | < 10
7 | CC(C)n1cc(C(=O)Nc2ccc(Oc3ccnc(-c4cnn(C)c4)c3)c(F)c2)c(=O)n(-c2cnn(C)c2)c1=O [No. 21, N-(3-fluoro-4-((2-(1-methyl-1H-pyrazol-4-yl)pyridin-4-yl)oxy)phenyl)-1-isopropyl-3-(1-methyl-1H-pyrazol-4-yl)-2,4-dioxo-1,2,3,4-tetrahydropyrimidin-5-carboxamide] | 10 to 100 | > 100
8 | CC(C)n1cc(C(=O)Nc2ccc(Oc3ccnc(-c4cnn(C)c4)c3)c(F)c2)c(=O)n(-c2ccc(F)c(F)c2)c1=O [No. 19, 3-(3,4-difluorophenyl)-N-(3-fluoro-4-((2-(1-methyl-1H-pyrazol-4-yl)pyridin-4-yl)oxy)phenyl)-1-isopropyl-2,4-dioxo-1,2,3,4-tetrahydropyrimidin-5-carboxamide] | < 10 | < 10
9 | Cn1cc(-c2cc(Oc3ccc(NC(=O)c4cn(-c5ccc(F)cc5)c(=O)n(-c5ccc(F)cc5)c4=O)cc3F)ccn2)cn1 [No. 12, N-(3-fluoro-4-((2-(1-methyl-1H-pyrazol-4-yl)pyridin-4-yl)oxy)phenyl)-1,3-bis(4-fluorophenyl)-2,4-dioxo-1,2,3,4-tetrahydropyrimidin-5-carboxamide] | > 100 | > 100
10 | CC(C)n1cc(C(=O)Nc2ccc(Oc3ncnc4[nH]cc(-c5ccccc5)c34)c(F)c2)c(=O)n(-c2ccc(F)cc2)c1=O [No. 44, N-(3-fluoro-4-((5-phenyl-7H-pyrrolo[2,3-d]pyrimidin-4-yl)oxy)phenyl)-3-(4-fluorophenyl)-1-isopropyl-2,4-dioxo-1,2,3,4-tetrahydropyrimidin-5-carboxamide] | < 10 | 10 to 100
11 | CC(C)n1cc(C(=O)Nc2ccc(Oc3ccnc4c3CC(=O)N4)c(F)c2)c(=O)n(-c2ccc(F)cc2)c1=O [No. 45, N-(3-fluoro-4-((2-oxo-2,3-dihydro-1H-pyrrolo[2,3-b]pyridin-4-yl)oxyl)phenyl)-3-(4-fluorophenyl)-1-isopropyl-2,4-dioxo-1,2,3,4-tetrahydropyrimidin-5-carboxamide] | 10 to 100 | > 100
12 | CC(C)n1cc(C(=O)Nc2ccc(Oc3ccnc(-c4cnn(C)c4)c3)c(F)c2)c(=O)n(-c2cccc(F)c2)c1=O [No. 17, N-(3-fluoro-4-((2-(1-methyl-1H-pyrazol-4-yl)pyridin-4-yl)oxy)phenyl)-3-(3-fluorophenyl)-1-isopropyl-2,4-dioxo-1,2,3,4-tetrahydropyrimidin-5-carboxamide] | < 10 | < 10
13 | CC(C)n1cc(C(=O)Nc2ccc(Oc3ccnc4[nH]cc(Br)c34)c(F)c2)c(=O)n(-c2ccc(F)cc2)c1=O [No. 42] | < 10 | < 10
14 | CC(C)n1cc(C(=O)Nc2ccc(-c3cc(-c4cnn(C)c4)cnc3N)c(F)c2)c(=O)n(-c2ccc(F)cc2)c1=O [No. 38, N-(4-(2-amino-5-(1-methyl-1H-pyrazol-4-yl)pyridin-3-yl)-3-fluorophenyl)-3-(4-fluorophenyl)-1-isopropyl-2,4-dioxo-1,2,3,4-tetrahydropyrimidin-5-carboxamide] | < 10 | < 10
15 | C#CCn1cc(C(=O)Nc2ccc(Oc3ccnc(-c4cnn(C)c4)c3)c(F)c2)c(=O)n(-c2ccc(F)cc2)c1=O [No. 8, N-(3-fluoro-4-((2-(1-methyl-1H-pyrazol-4-yl)pyridin-4-yl)oxy)phenyl)-3-(4-fluorophenyl)-2,4-dioxo-1-propargyl-1,2,3,4-tetrahydropyrimidin-5-carboxamide] | 10 to 100 | 10 to 100
16 | COCCCn1cc(C(=O)Nc2ccc(Oc3ccnc(-c4cnn(C)c4)c3)c(F)c2)c(=O)n(-c2ccc(F)cc2)c1=O [No. 55, N-(3-fluoro-4-((2-(1-methyl-1H-pyrazol-4-yl)pyridin-4-yl)oxy)phenyl)-3-(4-fluorophenyl)-1-(3-methoxypropyl)-2,4-dioxo-1,2,3,4-tetrahydropyrimidin-5-carboxamide] | 10 to 100 | 10 to 100
17 | Cn1cc(-c2cc(Oc3ccc(NC(=O)c4cn(C)c(=O)n(-c5ccc(F)cc5)c4=O)cc3F)ccn2)cn1 [No. 1, N-(3-fluoro-4-((2-(1-methyl-1H-pyrazol-4-yl)pyridin-4-yl)oxy)phenyl)-3-(4-fluorophenyl)-1-methyl-2,4-dioxo-1,2,3,4-tetrahydropyrimidin-5-carboxamide] | < 10 | < 10
18 | COc1ccc(-c2cnc(N)c(-c3ccc(NC(=O)c4cn(C(C)C)c(=O)n(-c5ccc(F)cc5)c4=O)cc3F)c2)cc1OC [No. 37, N-(4-(2-amino-5-(3,4-dimethoxyphenyl)pyridin-3-yl)-3-fluorophenyl)-3-(4-fluorophenyl)-1-isopropyl-2,4-dioxo-1,2,3,4-tetrahydropyrimidin-5-carboxamide] | < 10 | 10 to 100
19 | CC(C)n1cc(C(=O)Nc2ccc(Oc3ccnc(-c4cnn(C)c4)c3)c(F)c2)c(=O)n(-c2ccc(Cl)cc2)c1=O [No. 14, 3-(4-chlorophenyl)-N-(3-fluoro-4-((2-(1-methyl-1H-pyrazol-4-yl)pyridin-4-yl)oxy)phenyl)-1-isopropyl-2,4-dioxo-1,2,3,4-tetrahydropyrimidin-5-carboxamide] | < 10 | < 10
20 | CC(C)n1nc(C(=O)Nc2ccc(Oc3ccnc(-c4cnn(C)c4)c3)c(F)c2)c(=O)n(-c2ccc(F)cc2)c1=O [No. 24, N-(3-fluoro-4-((2-(1-methyl-1H-pyrazol-4-yl)pyridin-4-yl)oxy)phenyl)-4-(4-fluorophenyl)-2-isopropyl-3,5-dioxo-2,3,4,5-tetrahydro-1,2,4-triazine-6-carboxamide] | < 10 | 10 to 100
21 | CC(C)n1cc(C(=O)Nc2ccc(Oc3ccnc(-c4cnn(C)c4)c3)c(F)c2)c(=O)n(-c2ccccc2)c1=O [No. 13, N-(3-fluoro-4-((2-(1-methyl-1H-pyrazol-4-yl)pyridin-4-yl)oxy)phenyl)-1-isopropyl-2,4-dioxo-3-phenyl-1,2,3,4-tetrahydropyrimidin-5-carboxamide] | 10 to 100 | 10 to 100
22 | CC(C)n1cc(C(=O)Nc2ccc(Oc3ccnc(-c4cnn(C)c4)c3)c(F)c2)c(=O)n([C@H]2CC[C@H](C)CC2)c1=O [No. 22, N-(3-fluoro-4-((2-(1-methyl-1H-pyrazol-4-yl)pyridin-4-yl)oxy)phenyl)-1-isopropyl-3-((1R,4R)-4-methylcyclohexyl)-2,4-dioxo-1,2,3,4-tetrahydropyrimidin-5-carboxamide] | 10 to 100 | > 100
23 | Cn1cc(-c2cc(Oc3ccc(NC(=O)c4cn(CC5CCCC5)c(=O)n(-c5ccc(F)cc5)c4=O)cc3F)ccn2)cn1 [No. 6, 1-(cyclopentylmethyl)-N-(3-fluoro-4-((2-(1-methyl-1H-pyrazol-4-yl)pyridin-4-yl)oxy)phenyl)-3-(4-fluorophenyl)-2,4-dioxo-1,2,3,4-tetrahydropyrimidin-5-carboxamide] | 10 to 100 | 10 to 100
24 | C=CCn1cc(C(=O)Nc2ccc(Oc3ccnc(-c4cnn(C)c4)c3)c(F)c2)c(=O)n(-c2ccc(F)cc2)c1=O [No. 7, 1-allyl-N-(3-fluoro-4-((2-(1-methyl-1H-pyrazol-4-yl)pyridin-4-yl)oxy)phenyl)-3-(4-fluorophenyl)-2,4-dioxo-1,2,3,4-tetrahydropyrimidin-5-carboxamide] | < 10 | < 10
